Assay [1] deals with von Hippel-Lindau disease tumor suppressor (Homo sapiens, UniProt P40337). The assay can be described thus: Binding affinity to VHL (unknown origin) assessed as reduction of HIF1alpha derived peptide binding to VHL complex by competitive binding fluorescence polarization assay.
For assay [2], the target named is von Hippel-Lindau disease tumor suppressor/Receptor-interacting serine/threonine-protein kinase 2 (Homo sapiens, UniProt O43353+P40337). The assay can be described thus: Proteolysis targeting chimera activity in human THP1 cells assessed as induction of VHL-mediated delivery of RIPK2 for protein degradation by proteasome by measuring drug level causing 50% cellular protein depletion incubated for 16 hrs by Western blotting method. The format is cell-based.

The values below come from ChEMBL document CHEMBL4024761, “Protac-Induced Protein Degradation in Drug Discovery: Breaking the Rules or Just Making New Ones?” (J Med Chem, 2018).

The structures appear in SMILES notation.

Chain of von Hippel-Lindau disease tumor suppressor/Receptor-interacting serine/threonine-protein kinase 2 (O43353 whole entry): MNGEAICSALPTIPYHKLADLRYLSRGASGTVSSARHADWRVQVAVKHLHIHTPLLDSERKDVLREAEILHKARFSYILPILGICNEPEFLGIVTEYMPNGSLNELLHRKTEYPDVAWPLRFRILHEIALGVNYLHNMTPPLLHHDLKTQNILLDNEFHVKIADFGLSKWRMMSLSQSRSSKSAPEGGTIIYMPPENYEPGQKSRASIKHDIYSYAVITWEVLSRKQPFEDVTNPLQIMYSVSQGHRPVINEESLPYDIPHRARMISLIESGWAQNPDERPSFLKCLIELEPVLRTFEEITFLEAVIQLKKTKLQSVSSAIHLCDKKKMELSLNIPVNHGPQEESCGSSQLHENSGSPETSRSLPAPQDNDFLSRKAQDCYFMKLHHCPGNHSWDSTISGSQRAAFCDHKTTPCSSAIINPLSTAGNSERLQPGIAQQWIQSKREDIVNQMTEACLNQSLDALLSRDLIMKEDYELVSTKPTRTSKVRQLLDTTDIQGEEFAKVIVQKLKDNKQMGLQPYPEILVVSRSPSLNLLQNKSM
Chain of von Hippel-Lindau disease tumor suppressor/Receptor-interacting serine/threonine-protein kinase 2 (P40337 whole entry): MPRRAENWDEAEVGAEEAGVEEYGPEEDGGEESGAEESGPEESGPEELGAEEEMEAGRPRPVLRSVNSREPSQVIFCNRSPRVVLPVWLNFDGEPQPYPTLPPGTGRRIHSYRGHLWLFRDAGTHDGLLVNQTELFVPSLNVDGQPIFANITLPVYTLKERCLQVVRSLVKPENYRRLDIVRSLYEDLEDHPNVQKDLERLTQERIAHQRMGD
Chain of von Hippel-Lindau disease tumor suppressor (P40337 whole entry): as above

`Cc1ncsc1-c1ccc(CNC(=O)[C@@H]2C[C@@H](O)CN2C(=O)[C@@H](NC(=O)COCCOCCOCCOCCOc2cc3nccc(Nc4ccc5scnc5c4)c3cc2S(=O)(=O)C(C)(C)C)C(C)(C)C)cc1`: the Kd in assay [1] is 500 nM. Besides, the DC50 in assay [2] was found to be 1 nM.
